Earlier results as cited in US20140011766A1, “ANTIMICROBIAL COMPOSITIONS AND METHODS” (priority 2012, published 2014).

Test system: pathogens
Conditions: except for spores (specifically C. difficile spores)

Compound: CCO [Ethanol]
- killing of pathogens: 99.99%
